Test results from patent publication US9227971B2, “Pyrazolo[1,5-a]pyrimidine compounds as mTOR inhibitors” (Merck Sharp & Dohme Corp., priority 2010, dated 2016).
Where two headings read alike, the source gives them in different places.

How the values were obtained:
[1] = test system: phosphorylated AKT Ser473 (pAKT S473), mTORC2 activity, PC3 cells; assay: mTOR target engagement assay, immunofluorescent cell-based, pAKT S473 readout (mTORC2 activity); conditions: Homo sapiens
How it was run: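 After blocking, cells were stained overnight at 4 °C with anti-pAKT S473 antibody, then a fluorescent secondary; inhibition was read as reduced fluorescence intensity.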

[2] = test system: phosphorylated 4E-BP1 Thr37/46 (p4E-BP1 Thr37/46), mTORC1 activity, PC3 cells; assay: mTOR target engagement assay, immunofluorescent cell-based, p4E-BP1 Thr37/46 readout (mTORC1 activity); conditions: Homo sapiens, read-out: p4E-BP1 Thr37/46 IC50
How it was run: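 Cell-based immunofluorescence in PC3 cells: serially diluted compounds (0.25% DMSO, 5% FBS) applied for ninety minutes at 37° C before fixation and overnight 4° C staining of p4E-BP1 Thr37/46. Untreated DMSO wells set maximal phosphorylation; IC50 obtained by logistic fitting.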

[3] = PC-3, PC3 cells, compound treatment ninety minutes at 37° C.

Nc1c(C2CC2)c([C@@H]2C[C@H]3CC[C@@H](C2)N3C(=O)CO)nc2c(-c3ccc(-c4cccc(F)c4)nc3)cnn12 [Compound 4.22, 1-((1R,3s,5S)-3-(7-amino-6-cyclopropyl-3-(6-(3-fluorophenyl)pyridin-3-yl)pyrazolo[1,5-a]pyrimidin-5-yl)-8-azabicyclo[3.2.1]octan-8-yl)-2-hydroxyethanone]
IC50 [1, 3]: 100 to 1000 nM | IC50 [2, 3]: 100 to 1000 nM

COc1ccc2ncc(-c3cnn4c(N)c(C5CC5)c([C@@H]5C[C@H]6CC[C@@H](C5)N6C(=O)c5nnc[nH]5)nc34)cc2c1 [Compound 4.24, ((1R,3s,5S)-3-(7-amino-6-cyclopropyl-3-(6-methoxyquinolin-3-yl)pyrazolo[1,5-a]pyrimidin-5-yl)-8-azabicyclo[3.2.1]octan-8-yl)(4H-1,2,4-triazol-3-yl)methanone]
IC50 [1, 3]: 100 to 1000 nM | IC50 [2, 3]: 100 to 1000 nM

Nc1c(C2CC2)c([C@@H]2C[C@H]3CC[C@@H](C2)N3C(=O)c2nnc[nH]2)nc2c(-c3cnn(-c4ccccc4)c3)cnn12 [Compound 4.26, ((1R,3s,5S)-3-(7-amino-6-cyclopropyl-3-(1-phenyl-1H-pyrazol-4-yl)pyrazolo[1,5-a]pyrimidin-5-yl)-8-azabicyclo[3.2.1]octan-8-yl)(4H-1,2,4-triazol-3-yl)methanone]
IC50 [1, 3]: 1 to 100 nM | IC50 [2, 3]: 100 to 1000 nM

COc1ccc(-c2ccc(-c3cnn4c(N)c(C5CC5)c([C@@H]5C[C@H]6CC[C@@H](C5)N6C(=O)c5nnc(N)[nH]5)nc34)cn2)cc1F [Compound 4.27, (5-amino-4H-1,2,4-triazol-3-yl)((1R,3a,5S)-3-(7-amino-6-cyclopropyl-3-(6-(3-fluoro-4-methoxyphenyl)pyridin-3-yl)pyrazolo[1,5-a]pyrimidin-5-yl)-8-azabicyclo[3.2.1]octan-8-yl)methanone]
IC50 [1, 3]: 1 to 100 nM | IC50 [2, 3]: 1 to 100 nM

CC(=O)Nc1nnc(C(=O)N2[C@@H]3CC[C@H]2C[C@H](c2nc4c(-c5ccc(-c6ccccc6)nc5)cnn4c(N)c2C2CC2)C3)[nH]1 [Compound 4.28, N-(5-((1R,3s,5S)-3-(7-amino-6-cyclopropyl-3-(6-phenylpyridin-3-yl)pyrazolo[1,5-a]pyrimidin-5-yl)-8-azabicyclo[3.2.1]octane-8-carbonyl)-4H-1,2,4-triazol-3-yl)acetamide]
IC50 [1, 3]: 100 to 1000 nM | IC50 [2, 3]: 100 to 1000 nM

Nc1n[nH]cc1C(=O)N1[C@@H]2CC[C@H]1C[C@H](c1nc3c(-c4ccc(-c5ccccc5)nc4)cnn3c(N)c1C1CC1)C2 [Compound 4.30, (3-amino-1H-pyrazol-4-yl)((1R,3s,5S)-3-(7-amino-6-cyclopropyl-3-(6-phenylpyridin-3-yl)pyrazolo[1,5-a]pyrimidin-5-yl)-8-azabicyclo[3.2.1]octan-8-yl)methanone]
IC50 [1, 3]: 1 to 100 nM | IC50 [2, 3]: 100 to 1000 nM

COCCNc1nnc(C(=O)N2[C@@H]3CC[C@H]2C[C@H](c2nc4c(-c5ccc(-c6ccccc6)nc5)cnn4c(N)c2C2CC2)C3)[nH]1 [Compound 4.31, ((1R,3s,5S)-3-(7-amino-6-cyclopropyl-3-(6-phenylpyridin-3-yl)pyrazolo[1,5-a]pyrimidin-5-yl)-8-azabicyclo[3.2.1]octan-8-yl)(5-(2-methoxyethylamino)-4H-1,2,4-triazol-3-yl)methanone]
IC50 [1, 3]: 1000 to 10000 nM | IC50 [2, 3]: 1000 to 10000 nM

Nc1c(C2CC2)c([C@@H]2C[C@H]3CC[C@@H](C2)N3C(=O)NO)nc2c(-c3ccc(-c4ccccc4)nc3)cnn12 [Compound 4.32, (1R,3s,5S)-3-(7-amino-6-cyclopropyl-3-(6-phenylpyridin-3-yl)pyrazolo[1,5-a]pyrimidin-5-yl)-N-hydroxy-8-azabicyclo[3.2.1]octane-8-carboxamide]
IC50 [1, 3]: 1 to 100 nM | IC50 [2, 3]: 1 to 100 nM

N#Cc1c([C@@H]2C[C@H]3CC[C@@H](C2)N3C(=O)CO)nc2c(-c3ccc(-c4ccccc4)nc3)cnn2c1N [Compound 5.1, 7-amino-5-((1R,3s,5S)-8-(2-hydroxyacetyl)-8-azabicyclo[3.2.1]octan-3-yl)-3-(6-phenylpyridin-3-yl)pyrazolo[1,5-a]pyrimidine-6-carbonitrile]
IC50 [1, 3]: 1 to 100 nM | IC50 [2, 3]: 100 to 1000 nM

N#Cc1c([C@@H]2C[C@H]3CC[C@@H](C2)N3C(=O)c2nc[nH]n2)nc2c(-c3ccc(-c4ccccc4)nc3)cnn2c1N [Compound 5.2, 5-((1R,3s,5S)-8-(1H-1,2,4-triazole-3-carbonyl)-8-azabicyclo[3.2.1]octan-3-yl)-7-amino-3-(6-phenylpyridin-3-yl)pyrazolo[1,5-a]pyrimidine-6-carbonitrile]
IC50 [1, 3]: 1 to 100 nM | IC50 [2, 3]: 1 to 100 nM

N#Cc1c([C@@H]2C[C@H]3CC[C@@H](C2)N3C(=O)c2nnc[nH]2)nc2c(-c3ccc(-c4nccs4)nc3)cnn2c1N [Compound 5.3, 5-((1R,3s,5S)-8-(4H-1,2,4-triazole-3-carbonyl)-8-azabicyclo[3.2.1]octan-3-yl)-7-amino-3-(6-(thiazol-2-yl)pyridin-3-yl)pyrazolo[1,5-a]pyrimidine-6-carbonitrile]
IC50 [1, 3]: 1 to 100 nM | IC50 [2, 3]: 1 to 100 nM

COCc1c([C@@H]2C[C@H]3CC[C@@H](C2)N3C(=O)c2nnc[nH]2)nc2c(-c3ccc(-c4ccccc4)nc3)cnn2c1N [Compound 5.4, ((1R,3s,5S)-3-(7-amino-6-(methoxymethyl)-3-(6-phenylpyridin-3-yl)pyrazolo[1,5-a]pyrimidin-5-yl)-8-azabicyclo[3.2.1]octan-8-yl)(4H-1,2,4-triazol-3-yl)methanone]
IC50 [1, 3]: 1 to 100 nM | IC50 [2, 3]: 1 to 100 nM

COCc1c([C@@H]2C[C@H]3CC[C@@H](C2)N3C(=O)c2cc(N)n[nH]2)nc2c(-c3ccc(-c4ccccc4)nc3)cnn2c1N [Compound 5.5, (3-amino-1H-pyrazol-5-yl)((1R,3s,5S)-3-(7-amino-6-(methoxymethyl)-3-(6-phenylpyridin-3-yl)pyrazolo[1,5-a]pyrimidin-5-yl)-8-azabicyclo[3.2.1]octan-8-yl)methanone]
IC50 [1, 3]: 100 to 1000 nM | IC50 [2, 3]: 1000 to 10000 nM

COCc1c([C@@H]2C[C@H]3CC[C@@H](C2)N3C(=O)c2nnc[nH]2)nc2c(-c3ccc(-c4ccc(OC)cc4)nc3)cnn2c1N [Compound 5.6, ((1R,3s,5S)-3-(7-amino-6-(methoxymethyl)-3-(6-(4-methoxyphenyl)pyridin-3-yl)pyrazolo[1,5-a]pyrimidin-5-yl)-8-azabicyclo[3.2.1]octan-8-yl)(4H-1,2,4-triazol-3-yl)methanone]
IC50 [1, 3]: 1 to 100 nM | IC50 [2, 3]: 1 to 100 nM

Nc1c(CO)c([C@@H]2C[C@H]3CC[C@@H](C2)N3C(=O)c2nnc[nH]2)nc2c(-c3ccc(-c4ccccc4)nc3)cnn12 [Compound 5.7, ((1R,3s,5S)-3-(7-amino-6-(hydroxymethyl)-3-(6-phenylpyridin-3-yl)pyrazolo[1,5-a]pyrimidin-5-yl)-8-azabicyclo[3.2.1]octan-8-yl)(4H-1,2,4-triazol-3-yl)methanone]
IC50 [1, 3]: 1 to 100 nM | IC50 [2, 3]: 1 to 100 nM

CCc1c([C@@H]2C[C@H]3CC[C@@H](C2)N3C(=O)c2nnc[nH]2)nc2c(-c3ccc(-c4ccccc4)nc3)cnn2c1N [Compound 5.8, ((1R,3s,5S)-3-(7-amino-6-ethyl-3-(6-phenylpyridin-3-yl)pyrazolo[1,5-a]pyrimidin-5-yl)-8-azabicyclo[3.2.1]octan-8-yl)(4H-1,2,4-triazol-3-yl)methanone]
IC50 [1, 3]: 1 to 100 nM | IC50 [2, 3]: 1 to 100 nM

CCc1c([C@@H]2C[C@H]3CC[C@@H](C2)N3C(=O)c2nc(C)n[nH]2)nc2c(-c3ccc(-c4ccccc4)nc3)cnn2c1N [Compound 5.9, ((1R,3s,5S)-3-(7-amino-6-ethyl-3-(6-phenylpyridin-3-yl)pyrazolo[1,5-a]pyrimidin-5-yl)-8-azabicyclo[3.2.1]octan-8-yl)(3-methyl-1H-1,2,4-triazol-5-yl)methanone]
IC50 [1, 3]: 1 to 100 nM | IC50 [2, 3]: 1 to 100 nM

Nc1c(C2CC2)c([C@@H]2C[C@H]3CC[C@@H](C2)N3C(=O)CO)nc2c(-c3ccc(-c4ncc[nH]4)nc3)cnn12 [Compound 6.1, 1-((1R,3s,5S)-3-(3-(6-(1H-imidazol-2-yl)pyridin-3-yl)-7-amino-6-cyclopropylpyrazolo [1,5-a]pyrimidin-5-yl)-8-azabicyclo[3.2.1]octan-8-yl)-2-hydroxyethanone]
IC50 ([1]; PC-3, Table 6-1, PC3 cells): 1 to 100 nM | IC50 ([2]; PC-3, Table 6-1, PC3 cells): 1 to 100 nM

Nc1c(C2CC2)c([C@@H]2C[C@H]3CC[C@@H](C2)N3C(=O)c2nnc[nH]2)nc2c(-c3ccc(-c4ncc[nH]4)nc3)cnn12 [Compound 6.2, ((1R,3s,5S)-3-(3-(6-(1H-imidazol-2-yl)pyridin-3-yl)-7-amino-6-cyclopropylpyrazolo [1,5-a]pyrimidin-5-yl)-8-azabicyclo[3.2.1]octan-8-yl)(4H-1,2,4-triazol-3-yl)methanone]
IC50 ([1]; PC-3, Table 6-1, PC3 cells): 1 to 100 nM | IC50 ([2]; PC-3, Table 6-1, PC3 cells): 1 to 100 nM

CC(=O)c1c([C@@H]2C[C@H]3CC[C@@H](C2)N3C(=O)CO)nc2c(-c3ccc(-c4ncc[nH]4)nc3)cnn2c1N [Compound 6.3, 1-((1R,3s,5S)-3-(3-(6-(1H-imidazol-2-yl)pyridin-3-yl)-6-acetyl-7-aminopyrazolo[1,5-a]pyrimidin-5-yl)-8-azabicyclo[3.2.1]octan-8-yl)-2-hydroxyethanone]
IC50 ([1]; PC-3, Table 6-1, PC3 cells): 1 to 100 nM | IC50 ([2]; PC-3, Table 6-1, PC3 cells): 1 to 100 nM

CC(=O)c1c([C@@H]2C[C@H]3CC[C@@H](C2)N3C(=O)c2nnc[nH]2)nc2c(-c3ccc(-c4ncc[nH]4)nc3)cnn2c1N [Compound 6.4, 1-(3-(6-(1H-imidazol-2-yl)pyridin-3-yl)-5-((1R,3s,5S)-8-(4H-1,2,4-triazole-3-carbonyl)-8-azabicyclo[3.2.1]octan-3-yl)-7-aminopyrazolo[1,5-a]pyrimidin-6-yl)ethanone]
IC50 ([1]; PC-3, Table 6-1, PC3 cells): 1 to 100 nM | IC50 ([2]; PC-3, Table 6-1, PC3 cells): 1 to 100 nM
